Results: ChEMBL document CHEMBL2086285, “Targeting the liver stage of malaria parasites: a yet unmet goal” (J Med Chem, 2012)

Tested on: Plasmodium yoelii yoelii
Experiment: Antimalarial activity against liver stages of Plasmodium yoelii yoelii
Type: functional, organism-based
Details: not given

| SMILES | IC50 [µM] |
| --- | --- |
| CC[C@H](C)[C@H](NC(=O)[C@H]([C@@H](C)CC)N(C)C(C)=O)C(=O)N[C@H](C(=O)N[C@@H](CC(C)C)C(=O)[C@@]1(C)CO1)[C@@H](C)O [EPOXOMYCIN] | 3.95 |
| CC(C)Nc1cccnc1N1CCN(C(=O)c2cc3cc(NS(C)(=O)=O)ccc3[nH]2)CC1 [DELAVIRDINE] | 0.000846 |
| C=CC(C)(C)c1cc(/C=C/C(=O)c2ccc(O)cc2)c(OC)cc1O [LICOAGROCHACONE A] | 0.000927 |
| CC(CCc1ccc(O)cc1)NCCc1ccc(O)c(O)c1 (stereo unspecified) [DOBUTAMINE] | 0.0037 |
| CC[C@]1(O)C[C@@H]2CN(CCc3c([nH]c4ccccc34)[C@@](C(=O)OC)(c3cc4c(cc3OC)N(C)[C@H]3[C@@](O)(C(=O)OC)[C@H](OC(C)=O)[C@]5(CC)C=CCN6CC[C@]43[C@@H]65)C2)C1 [VINBLASTINE] | 7.95 |
| COCC(=O)O[C@]1(CCN(C)CCCc2nc3ccccc3[nH]2)CCc2cc(F)ccc2[C@@H]1C(C)C [MIBEFRADIL] | 0.000873 |
| CC(N)C12CC3CC(CC(C3)C1)C2 (stereo unspecified) [RIMANTADINE] | 0.0356 |

Tested on: Plasmodium yoelii
Experiment: Antimalarial activity against liver stages of Plasmodium yoelii 265 BY infected in Swiss mouse after 48 hrs by fluorescence microscopy
Type: functional, organism-based
Details: not given

| SMILES | IC50 [µM] |
| --- | --- |
| COc1cc(C)cc(OC)c1OC(C)[C@@H](O)c1ccc2c(c1)OC(F)(F)O2 (mixture of isomers; 146) | 5.62 |
| COc1cc(C)cc(OC)c1OC(C)[C@@H](O)c1ccc2c(c1)OC(F)(F)O2 (mixture of isomers; 145) | 19 |
| COc1cccc(OC)c1OC(C)[C@@H](O)c1ccc2c(c1)OC(F)(F)O2 (mixture of isomers; 144) | 20.2 |

Same assay, conditions: Plasmodium yoelii, 265 BY, 48 h

| SMILES | IC50 [µM] |
| --- | --- |
| COc1cc([C@H](O)[C@H](C)Oc2c(OC)cc(-c3ccccc3)cc2OC)cc(OC)c1OC | 3.54 |
| COc1cc([C@H](O)[C@@H](C)Oc2c(OC)cccc2OC)cc(OC)c1OC | 2.52 |
| COc1cc([C@H](O)[C@@H](C)Oc2c(OC)cc(C)cc2OC)cc(OC)c1OC | 0.0045 |
| COc1cc([C@H](O)[C@H](C)Oc2c(OC)cccc2OC)cc(OC)c1OC | 28.6 |
| COc1cc([C@H](O)[C@H](C)Oc2c(OC)cc(C)cc2OC)cc(OC)c1OC | 50.1 |
| COc1cccc(OC)c1OC(C)[C@@H](O)c1ccc2c(c1)OC(F)(F)O2 (mixture of isomers; 143) | 20.1 |
| COc1cc([C@H](O)[C@@H](C)Oc2c(OC)cc(-c3ccccc3)cc2OC)cc(OC)c1OC | 3.61 |

Tested on: Plasmodium cynomolgi
Experiment: Antimalarial activity against Plasmodium cynomolgi M infected in rhesus monkey administered as po qd for 7 days
Type: functional
Details: in Macaca mulatta, 168 h

| SMILES | ED50 [mg/kg] |
| --- | --- |
| COc1cc(NC(C)CCCN)c2nccc(C)c2c1Oc1cccc(C(F)(F)F)c1 (stereo unspecified) | 0.11 |
| COc1cc(NC(C)CCCN)c2ncccc2c1OC (stereo unspecified) | 0.44 |
| COc1cc(NC(C)CCCN)c2nccc(C)c2c1 (stereo unspecified) | 0.2 |
| COc1cc(NCCC(C)N)c2nccc(C)c2c1OC (stereo unspecified) | 0.12 |
| COc1cc(NC(C)CCCN)c2nccc(C)c2c1OC (stereo unspecified) | 0.098 |
| COc1cc(NCCCC(C)N)c2ncccc2c1Oc1cccc(C(F)(F)F)c1 (stereo unspecified) | 0.5 |
| COc1cc(NC(C)CCCN)c2nc(C)ccc2c1Oc1ccc(F)cc1 (stereo unspecified) | 0.22 |
| COc1cc(NC(C)CCCN)c2nc(C)ccc2c1 (stereo unspecified) | 0.38 |
| CCN(CC)CCCNc1cc(OC)cc2c(C)ccnc12 | 0.51 |
| COc1cc(NC(C)CCCN)c2nccc(C)c2c1F (stereo unspecified) | 0.36 |
| CCOc1c(OC)cc(NC(C)CCCN)c2ncccc12 (stereo unspecified) | 0.18 |
| COc1cc(NC(C)CCCN)c2nc(C)ccc2c1Oc1ccc(Cl)cc1 (stereo unspecified) | 0.19 |
| COc1cc(NC(C)CCCN)c2nc(N)ccc2c1 (stereo unspecified) | 0.36 |
| COc1cc(NCCCC(C)N)c2nc(C)ccc2c1 (stereo unspecified) | 0.21 |
| COc1cc(NC(C)CCCN)c2ncccc2c1Oc1ccc(F)cc1 (stereo unspecified) | 0.23 |
| C=Cc1ccnc2c(NC(C)CCCN)cc(OC)cc12 (stereo unspecified) | 0.5 |
| COc1cc(NCCCC(C)N)c2nccc(C)c2c1 (stereo unspecified) | 0.11 |
| COc1cc(NC(C)CCCN)c2nc(C)ccc2c1F (stereo unspecified) | 0.21 |
| CCC(N)CCCNc1cc(OC)cc2c(C)ccnc12 (stereo unspecified) | 0.48 |
| CCN(CC)CCCCC(C)Nc1cc(OC)cc2c(C)ccnc12 (stereo unspecified) | 0.23 |
| COc1cc(NC(C)CCCN)c2nc(OCc3ccc(F)cc3)ccc2c1 (stereo unspecified) | 0.35 |

Tested on: Plasmodium falciparum
Experiment: Antimalarial activity against liver stages of Plasmodium falciparum NF54 infected in human HepG2 cells after 6 days by fluorescence microscopy
Type: functional, organism-based
Details: NF54, HepG2, 144 h

| SMILES | IC50 [µM] |
| --- | --- |
| COc1cc([C@H](O)[C@H](C)Oc2c(OC)cc(-c3ccccc3)cc2OC)cc(OC)c1OC | 0.02 |
| COc1cc([C@H](O)[C@@H](C)Oc2c(OC)cc(C)cc2OC)cc(OC)c1OC | 0.38 |
| COc1cc([C@H](O)[C@@H](C)Oc2c(OC)cc(-c3ccccc3)cc2OC)cc(OC)c1OC | 0.007 |
